Source: patent US20240174637A1, “DEGRADERS OF GRK2 AND USES THEREOF” (Sonata Therapeutics, Inc., priority 2021, published 2024)
Structures can show the parent of a compound that is named as a salt. Where two headings read alike, the source gives them in different places.

Legend:
GRK2 [1] = molecular target: T1, GRK2 (Homo sapiens, UniProt P25098); test: GRK2 Inhibition Assay (TR-FRET, Example 1); type: biochemical
T1 sequence (P25098 1-689): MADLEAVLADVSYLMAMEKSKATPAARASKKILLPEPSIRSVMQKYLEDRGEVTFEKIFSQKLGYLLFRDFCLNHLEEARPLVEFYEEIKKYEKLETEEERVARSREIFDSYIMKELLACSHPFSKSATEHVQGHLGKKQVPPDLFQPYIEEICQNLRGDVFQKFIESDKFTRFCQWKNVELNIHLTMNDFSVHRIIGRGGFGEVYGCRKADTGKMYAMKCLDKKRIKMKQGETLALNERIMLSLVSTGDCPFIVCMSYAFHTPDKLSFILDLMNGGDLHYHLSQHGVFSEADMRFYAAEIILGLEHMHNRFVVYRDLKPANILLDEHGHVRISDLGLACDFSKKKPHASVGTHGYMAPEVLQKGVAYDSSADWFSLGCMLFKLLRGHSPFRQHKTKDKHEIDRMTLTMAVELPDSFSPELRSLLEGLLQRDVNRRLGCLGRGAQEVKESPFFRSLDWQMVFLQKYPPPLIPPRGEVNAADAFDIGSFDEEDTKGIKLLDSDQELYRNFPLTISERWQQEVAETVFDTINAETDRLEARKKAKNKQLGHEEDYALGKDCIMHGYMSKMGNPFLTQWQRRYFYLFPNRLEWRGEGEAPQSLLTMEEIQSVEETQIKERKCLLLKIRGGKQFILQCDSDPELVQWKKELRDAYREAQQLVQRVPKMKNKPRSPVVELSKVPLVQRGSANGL
In short: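 GRK2 (1 nM) pre-incubated 30 min RT with compounds in HEPES/MgCl2/DTT/Tween-20/EGTA buffer, then reacted 90 min RT with 7 μM ATP and 50 nM ULight-TopoIIα substrate. Stopped with EDTA plus Eu anti-TopoIIα antibody; TR-FRET read after 60 min.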

PAXF1657 KO Clone #4 = test: 7-day cellular proliferation assay (CellTiter-Glo), PAXF1657 KO Clone #4; type: cell-based
In short: (§1)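 Seven-day growth in PAXF1657 lines engineered for GRK2 overexpression or knockout, measured by CellTiter-Glo; compounds tested at 30 μM-0.0002 μM final and replenished once at day 3.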

GRK2 [2] = molecular target: T1, GRK2; test: GRK2 Degradation Assay and Western Blot in PAXF1657 cells; type: cell-based; parameters: endogenous in cells; host or cells: PAXF1657; conditions: for DC50: PAXF1657, 24 h, read-out: Degradation Assay - Full Dose Response: IC50 (uM) [cell line: PAXF1657, time point: 24 h]
In short: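 PAXF1657 cells grown to 70% confluency, then treated with compounds at 0–10 μM for 6 to 24 h at 37 °C. Lysates in PBS with 1% NP40 run on SDS-PAGE. GRK2 protein detected by western blot with β-actin as loading reference, using ECL chemiluminescence.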

PAXF1657 EV = test: 7-day cellular proliferation assay (CellTiter-Glo), PAXF1657 EV; type: cell-based
In short: as §1

[3] = TR-FRET, 7 μM ATP, read-out: Enzymatic GRK2 Assay: IC50 (nM) (Example 1)
[4] = 168 h, 7-day, read-out: 7-day proliferation assay: IC50 GeoMean (uM) [Cell Line: PAXF1657 KO Clone #4]
[5] = 0.3 uM, PAXF1657 EV, 24 hrs, read-out: % GRK2 degradation at 0.3 uM in PAXF1657 EV (24 hrs)
[6] = 1 uM, PAXF1657 EV, 24 hrs, read-out: % GRK2 degradation at 1 uM in PAXF1657 EV (24 hrs)
[7] = 3 uM, PAXF1657 EV, 24 hrs, read-out: % GRK2 degradation at 3 uM in PAXF1657 EV (24 hrs)
[8] = 168 h, 7-day, read-out: 7-day proliferation assay: IC50 GeoMean (uM) [Cell Line: PAXF1657 EV]
[9] = Table 4, Example 1 assay, read-out: Enzymatic GRK2 IC50: Av IC50 GRK2
[10] = proliferation, read-out: GeoMean IC50 (uM) PAXF1657 KO Clone #4
[11] = Conc 0.3 uM, read-out: Degradation Assay - 3 point: Degradation (%)
[12] = Conc 1 uM, read-out: Degradation Assay - 3 point: Degradation (%)
[13] = Conc 3 uM, read-out: Degradation Assay - 3 point: Degradation (%)
[14] = proliferation, read-out: GeoMean IC50 (UM) PAXF1657 EV

IC50 (GRK2 [1]; [3]) [nM] | inhibition at 0.3 µM (GRK2 [2]; [5]) [%] | inhibition at 1 µM (GRK2 [2]; [6]) [%] | inhibition at 3 µM (GRK2 [2]; [7]) [%] | IC50 (GRK2 [1]; [9]) [nM] | inhibition at 0.3 µM (GRK2 [2]; [11]) [%] | inhibition at 1 µM (GRK2 [2]; [12]) [%] | inhibition at 3 µM (GRK2 [2]; [13]) [%] | DC50 (GRK2 [2]) [µM] | SMILES | IC50 (PAXF1657 KO Clone #4; [4]) [µM] | IC50 (PAXF1657 EV; [8]) [µM] | IC50 (PAXF1657 KO Clone #4; [10]) [µM] | IC50 (PAXF1657 EV; [14]) [µM]
< 100 | 34 | 55 | 68 | – | – | – | – | – | Cn1c(CNc2cccc(C(=O)NCc3cccc(OCCCCCCn4cc(CCCC(=O)Nc5cccc6c5CN(C5CCC(=O)NC5=O)C6=O)nn4)c3)c2)nnc1-c1ccncn1 (stereo not drawn) [Compound D63] | > 10 | > 10 | – | –
– | – | – | – | 12.5 | 71.2 | 79.2 | 80.4 | – | C[C@@H](NC(=O)c1cccc(NCc2nnc(-c3ccncn3)n2C)c1)c1ccc(OCCCCCCOCCOCCOCCC(=O)N2CCN(c3cc4c(cc3F)C(=O)N(C3CCC(=O)NC3=O)C4=O)CC2)cc1 (stereo partly drawn) [Compound D137, N-((1R)-1-(4-(6-(2-(2-(3-(4-(2-(2,6-dioxopiperidin-3-yl)-6-fluoro-1,3-dioxoisoindolin-5-yl)piperazin-1-yl)-3-oxopropoxy)ethoxy)ethoxy)hexyloxy)phenyl)ethyl)-3-((4-methyl-5-(pyrimidin-4-yl)-4H-1,2,4-triazol-3-yl)methylamino)benzamide] | – | – | 22.8 | 0.14
< 100 | – | 23 | 18 | – | – | – | – | – | Cc1ncsc1-c1ccc(CNC(=O)[C@@H]2C[C@@H](O)CN2C(=O)[C@@H](NC(=O)CCCCCOCCOCCOCCCCCCOc2ccc(CNC(=O)c3cccc(NCc4nnc(-c5ccncn5)n4C)c3)cc2)C(C)(C)C)cc1 [Compound D87] | > 10 | 1 to 10 | – | –
– | – | – | – | 22.1 | 83.9 | 81.6 | 50.3 | – | C[C@@H](NC(=O)c1cccc(NCc2nnc(-c3ccncn3)n2C)c1)c1cccc(OCCCCCOCCCOCCOc2cccc3c2CN(C2CCC(=O)NC2=O)C3=O)c1 (stereo partly drawn) [Compound D198, N-((1R)-1-(3-((5-(3-(2-((2-(2,6-dioxopiperidin-3-yl)-1-oxoisoindolin-4-yl)oxy)ethoxy)propoxy)pentyl)oxy)phenyl)ethyl)-3-(((4-methyl-5-(pyrimidin-4-yl)-4H-1,2,4-triazol-3-yl)methyl)amino)benzamide] | – | – | > 30 | 0.01
– | – | – | – | 16.3 | 87.4 | 92.4 | 91.5 | 0.12 | C[C@@H](NC(=O)c1cccc(NCc2nnc(-c3ccncn3)n2C)c1)c1cccc(OCCCCCCOCC(=O)N2CCN(c3ccc4c(c3)CN(C3CCC(=O)NC3=O)C4=O)CC2)c1 (stereo partly drawn) [Compound D132, N-((1R)-1-(3-(6-(2-(4-(2-(2,6-dioxopiperidin-3-yl)-1-oxoisoindolin-5-yl)piperazin-1-yl)-2-oxoethoxy)hexyloxy)phenyl)ethyl)-3-((4-methyl-5-(pyrimidin-4-yl)-4H-1,2,4-triazol-3-yl)methylamino)benzamide] | – | – | > 30 | 0.04
– | – | – | – | 12.7 | -22 | 51 | 53 | – | C[C@@H](NC(=O)c1cccc(NCc2nnc(-c3ccncn3)n2C)c1)c1cccc(OCCCCCCOCCOCCOCCCCCC(=O)Nc2cccc3c2CN(C2CCC(=O)N(C)C2=O)C3=O)c1 (stereo partly drawn) [Compound D190] | – | – | 26.8 | 1.74
– | – | – | – | 19.5 | 89 | 88 | 67 | 8.71 | C[C@@H](NC(=O)c1cccc(NCc2nnc(-c3ccncn3)n2C)c1)c1cccc(OCCCCCCOCCOCCNc2ccc3c(c2)CN(C2CCC(=O)NC2=O)C3=O)c1 (stereo partly drawn) [Compound D141, N-((1R)-1-(3-(6-(2-(2-(2-(2,6-dioxopiperidin-3-yl)-1-oxoisoindolin-5-ylamino)ethoxy)ethoxy)hexyloxy)phenyl)ethyl)-3-((4-methyl-5-(pyrimidin-4-yl)-4H-1,2,4-triazol-3-yl)methylamino)benzamide] | – | – | 1.66 | 0.17
– | – | – | – | 104 | -7.47 | -8.22 | -15.9 | – | C[C@@H](NC(=O)c1cccc(NCc2nnc(-c3ccncn3)n2C)c1)c1cccc(C(=O)N2CC(N3CCN(c4ccc5c(c4)CN(C4CCC(=O)NC4=O)C5=O)CC3)C2)c1 (stereo partly drawn) [Compound D172] | – | – | > 30 | 14.1
– | – | – | – | 6.56 | 81.6 | 85.2 | 84 | 0.03 | C[C@@H](NC(=O)c1cccc(NCc2nnc(-c3ccncn3)n2C)c1)c1cccc(OCCCN2CCN(c3ccc4c(c3)CN(C3CCC(=O)NC3=O)C4=O)CC2)c1 (stereo partly drawn) [Compound D123, N-((1R)-1-(3-(3-(4-(2-(2,6-dioxopiperidin-3-yl)-1-oxoisoindolin-5-yl)piperazin-1-yl)propoxy)phenyl)ethyl)-3-((4-methyl-5-(pyrimidin-4-yl)-4H-1,2,4-triazol-3-yl)methylamino)benzamide hydrochloride] | – | – | > 30 | < 0.000458
– | – | – | – | 17.9 | 78.7 | 84.7 | 90.7 | 0.29 | C[C@@H](NC(=O)c1cccc(NCc2nnc(-c3ccncn3)n2C)c1)c1cccc(OCCCCCCOCCOCCOCCC(=O)N2CCN(c3cc4c(cc3F)C(=O)N(C3CCC(=O)NC3=O)C4=O)CC2)c1 (stereo partly drawn) [Compound D130, N-((1R)-1-(3-(6-(2-(2-(3-(4-(2-(2,6-dioxopiperidin-3-yl)-6-fluoro-1,3-dioxoisoindolin-5-yl)piperazin-1-yl)-3-oxopropoxy)ethoxy)ethoxy)hexyloxy)phenyl)ethyl)-3-((4-methyl-5-(pyrimidin-4-yl)-4H-1,2,4-triazol-3-yl)methylamino)benzamide] | – | – | 24.7 | 0.88
< 100 | 70 | 82 | 85 | – | – | – | – | – | C[C@@H](NC(=O)c1cccc(NCc2nnc(-c3ccncn3)n2C)c1)c1cccc(OCCCCCCOCCOCCOCCCCCC(=O)Nc2cccc3c2CN(C2CCC(=O)NC2=O)C3=O)c1 (stereo partly drawn) [Compound D57, N-((1R)-1-(3-((6-(2-(2-((6-((2-(2,6-dioxopiperidin-3-yl)-1-oxoisoindolin-4-yl)amino)-6-oxohexyl)oxy)ethoxy)ethoxy)hexyl)oxy)phenyl)ethyl)-3-(((4-methyl-5-(pyrimidin-4-yl)-4H-1,2,4-triazol-3-yl)methyl)amino)benzamide] | > 10 | > 10 | – | –

SMILES | IC50 (GRK2 [1]; [3]) [nM] | inhibition at 0.3 µM (GRK2 [2]; [5]) [%] | inhibition at 1 µM (GRK2 [2]; [6]) [%] | inhibition at 3 µM (GRK2 [2]; [7]) [%] | IC50 (GRK2 [1]; [9]) [nM] | inhibition at 0.3 µM (GRK2 [2]; [11]) [%] | inhibition at 1 µM (GRK2 [2]; [12]) [%] | inhibition at 3 µM (GRK2 [2]; [13]) [%] | DC50 (GRK2 [2]) [µM] | IC50 (PAXF1657 KO Clone #4; [4]) [µM] | IC50 (PAXF1657 EV; [8]) [µM] | IC50 (PAXF1657 KO Clone #4; [10]) [µM] | IC50 (PAXF1657 EV; [14]) [µM]
C[C@@H](NC(=O)c1cccc(NCc2nnc(-c3ccncn3)n2C)c1)c1cccc(OCCCCCCOCCOCCOCCCC(=O)N2CCN(c3cc4c(cc3F)C(=O)N(C3CCC(=O)NC3=O)C4=O)CC2)c1 (stereo partly drawn) [Compound D178, N-((1R)-1-(3-((6-(2-(2-(4-(4-(2-(2,6-dioxopiperidin-3-yl)-6-fluoro-1,3-dioxoisoindolin-5-yl)piperazin-1-yl)-4-oxobutoxy)ethoxy)ethoxy)hexyl)oxy)phenyl)ethyl)-3-(((4-methyl-5-(pyrimidin-4-yl)-4H-1,2,4-triazol-3-yl)methyl)amino)benzamide] | – | – | – | – | 11.6 | 45 | 72 | 84 | – | – | – | > 30 | 0.31
